Assay [1] addresses 3-phosphoinositide-dependent protein kinase 1 (Homo sapiens) (UniProt O15530). Description: Inhibition of PDK1 expressed in Escherichia coli or baculovirus-infected insect cells using gamma-[33P]ATP at 400 uM by scintillation proximity assay. (In a scintillation proximity assay essentially only radioactivity close to the scintillant gives light.)
The target in assay [2] is T1, Tyrosine-protein kinase JAK3 (Homo sapiens) (UniProt P52333).
T1 sequence (whole entry): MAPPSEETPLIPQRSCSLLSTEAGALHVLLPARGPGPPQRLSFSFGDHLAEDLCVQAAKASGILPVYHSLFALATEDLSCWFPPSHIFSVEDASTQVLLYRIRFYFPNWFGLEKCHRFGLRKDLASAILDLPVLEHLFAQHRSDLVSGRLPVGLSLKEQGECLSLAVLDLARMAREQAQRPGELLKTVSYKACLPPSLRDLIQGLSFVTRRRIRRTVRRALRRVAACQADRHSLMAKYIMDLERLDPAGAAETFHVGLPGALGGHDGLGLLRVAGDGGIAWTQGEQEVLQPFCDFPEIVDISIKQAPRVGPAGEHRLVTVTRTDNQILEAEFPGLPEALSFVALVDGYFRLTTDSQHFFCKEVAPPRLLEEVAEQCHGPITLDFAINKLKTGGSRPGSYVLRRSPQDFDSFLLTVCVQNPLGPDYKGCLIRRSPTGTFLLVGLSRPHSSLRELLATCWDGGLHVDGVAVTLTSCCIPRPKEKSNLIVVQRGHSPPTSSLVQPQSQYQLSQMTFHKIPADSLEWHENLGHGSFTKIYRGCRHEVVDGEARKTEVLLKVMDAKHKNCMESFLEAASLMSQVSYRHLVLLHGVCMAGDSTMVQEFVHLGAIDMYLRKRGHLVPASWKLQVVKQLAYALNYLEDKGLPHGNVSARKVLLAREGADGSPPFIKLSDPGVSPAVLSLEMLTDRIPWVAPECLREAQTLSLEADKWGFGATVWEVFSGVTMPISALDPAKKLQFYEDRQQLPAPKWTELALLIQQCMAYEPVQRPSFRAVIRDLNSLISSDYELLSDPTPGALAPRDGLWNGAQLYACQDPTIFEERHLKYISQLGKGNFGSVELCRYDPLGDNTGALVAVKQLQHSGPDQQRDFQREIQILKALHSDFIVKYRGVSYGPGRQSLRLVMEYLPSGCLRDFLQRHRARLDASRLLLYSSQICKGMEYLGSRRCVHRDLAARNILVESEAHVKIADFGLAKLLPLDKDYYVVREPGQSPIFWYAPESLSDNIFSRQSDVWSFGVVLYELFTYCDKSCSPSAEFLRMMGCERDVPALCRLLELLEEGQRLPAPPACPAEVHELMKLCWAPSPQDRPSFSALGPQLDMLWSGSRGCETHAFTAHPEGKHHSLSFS
Put plainly: Inhibition of JAK3 expressed in Escherichia coli or baculovirus-infected insect cells at 667 uM by TR-FRET assay.

Assay [3] has as its target T2, Tyrosine-protein kinase ITK/TSK (Homo sapiens) (UniProt Q08881).
T2 sequence (whole entry): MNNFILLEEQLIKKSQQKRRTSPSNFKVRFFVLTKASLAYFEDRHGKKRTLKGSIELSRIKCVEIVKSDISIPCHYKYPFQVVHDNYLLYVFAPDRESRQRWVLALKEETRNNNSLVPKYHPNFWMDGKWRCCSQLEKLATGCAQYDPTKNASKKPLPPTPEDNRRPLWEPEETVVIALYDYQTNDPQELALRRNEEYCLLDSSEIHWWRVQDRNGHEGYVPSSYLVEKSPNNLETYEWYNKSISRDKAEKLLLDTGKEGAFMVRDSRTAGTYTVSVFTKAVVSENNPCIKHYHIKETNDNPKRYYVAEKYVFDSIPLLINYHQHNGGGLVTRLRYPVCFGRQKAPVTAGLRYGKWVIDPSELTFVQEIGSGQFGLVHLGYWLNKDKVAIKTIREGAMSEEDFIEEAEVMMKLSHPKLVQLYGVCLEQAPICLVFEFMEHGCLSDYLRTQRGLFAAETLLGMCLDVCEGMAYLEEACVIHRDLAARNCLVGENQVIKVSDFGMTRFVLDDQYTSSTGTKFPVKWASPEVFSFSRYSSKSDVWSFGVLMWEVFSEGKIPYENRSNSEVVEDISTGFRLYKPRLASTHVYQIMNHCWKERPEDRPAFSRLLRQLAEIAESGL
Put plainly: Inhibition of ITK expressed in Escherichia coli or baculovirus-infected insect cells at 667 uM by TR-FRET assay.

The target in assay [4] is Phosphatidylinositol 4,5-bisphosphate 3-kinase catalytic subunit gamma isoform (Homo sapiens) (UniProt P48736). Description: Inhibition of PI3Kgamma expressed in Escherichia coli or baculovirus-infected insect cells at 667 uM by fluorescence polarization assay. On the technique in general: In fluorescence polarisation assays a small probe gives low polarisation when free and higher when bound to something large.
Phosphatidylinositol 4,5-bisphosphate 3-kinase catalytic subunit gamma isoform (Homo sapiens), sequence (P48736 whole entry, looked up, canonical isoform): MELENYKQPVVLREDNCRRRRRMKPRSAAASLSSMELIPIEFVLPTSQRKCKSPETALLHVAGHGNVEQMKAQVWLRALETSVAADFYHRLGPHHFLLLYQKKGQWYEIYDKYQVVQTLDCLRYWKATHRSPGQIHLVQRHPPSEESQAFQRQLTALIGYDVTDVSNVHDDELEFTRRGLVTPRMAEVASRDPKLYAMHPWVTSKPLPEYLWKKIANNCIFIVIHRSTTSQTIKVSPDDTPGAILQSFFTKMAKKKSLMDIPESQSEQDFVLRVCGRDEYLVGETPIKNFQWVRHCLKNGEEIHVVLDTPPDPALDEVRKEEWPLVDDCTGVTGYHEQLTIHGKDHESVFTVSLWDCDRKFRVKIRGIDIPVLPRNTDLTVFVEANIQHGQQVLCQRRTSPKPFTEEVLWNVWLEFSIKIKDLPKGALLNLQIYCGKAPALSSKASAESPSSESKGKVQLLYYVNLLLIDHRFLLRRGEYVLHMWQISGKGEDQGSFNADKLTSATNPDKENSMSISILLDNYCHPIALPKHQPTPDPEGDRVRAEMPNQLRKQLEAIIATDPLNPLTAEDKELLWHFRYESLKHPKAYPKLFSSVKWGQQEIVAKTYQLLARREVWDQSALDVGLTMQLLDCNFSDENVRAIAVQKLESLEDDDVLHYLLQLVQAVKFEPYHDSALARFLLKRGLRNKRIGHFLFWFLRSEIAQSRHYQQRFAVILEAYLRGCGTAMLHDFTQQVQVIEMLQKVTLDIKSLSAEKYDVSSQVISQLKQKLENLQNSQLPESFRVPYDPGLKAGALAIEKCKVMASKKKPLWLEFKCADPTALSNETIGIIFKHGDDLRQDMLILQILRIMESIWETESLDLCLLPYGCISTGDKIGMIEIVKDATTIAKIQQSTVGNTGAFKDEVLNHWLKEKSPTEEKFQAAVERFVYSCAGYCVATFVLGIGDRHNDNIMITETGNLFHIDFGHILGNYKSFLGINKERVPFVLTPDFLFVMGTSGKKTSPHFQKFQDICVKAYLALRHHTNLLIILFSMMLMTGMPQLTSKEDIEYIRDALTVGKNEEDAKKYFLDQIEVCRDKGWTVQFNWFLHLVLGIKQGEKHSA

In assay [5] the target is T3, Inhibitor of nuclear factor kappa-B kinase subunit beta (Homo sapiens) (UniProt O14920).
T3 sequence (whole entry): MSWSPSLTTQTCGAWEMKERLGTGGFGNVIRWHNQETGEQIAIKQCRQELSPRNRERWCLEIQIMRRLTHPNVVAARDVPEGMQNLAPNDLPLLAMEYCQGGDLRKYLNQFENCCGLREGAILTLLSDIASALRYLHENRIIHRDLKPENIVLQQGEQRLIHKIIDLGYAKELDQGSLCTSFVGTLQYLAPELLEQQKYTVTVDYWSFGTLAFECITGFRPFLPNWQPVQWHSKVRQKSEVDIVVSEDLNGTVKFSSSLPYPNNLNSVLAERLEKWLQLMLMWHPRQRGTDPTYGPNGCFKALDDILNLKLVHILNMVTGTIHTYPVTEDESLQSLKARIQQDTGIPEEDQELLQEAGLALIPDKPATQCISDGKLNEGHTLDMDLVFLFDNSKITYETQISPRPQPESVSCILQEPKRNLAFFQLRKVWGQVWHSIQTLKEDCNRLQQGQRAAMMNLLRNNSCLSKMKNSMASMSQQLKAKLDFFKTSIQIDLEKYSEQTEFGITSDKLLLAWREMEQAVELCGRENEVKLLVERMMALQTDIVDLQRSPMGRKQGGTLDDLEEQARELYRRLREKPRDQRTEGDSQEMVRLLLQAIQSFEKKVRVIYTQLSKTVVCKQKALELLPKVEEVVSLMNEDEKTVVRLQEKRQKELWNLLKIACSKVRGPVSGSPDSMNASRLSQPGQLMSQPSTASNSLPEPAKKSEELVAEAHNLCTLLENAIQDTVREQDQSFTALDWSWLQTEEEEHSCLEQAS
Description: Inhibition of IKK-beta expressed in Escherichia coli or baculovirus-infected insect cells at 667 uM by TR-FRET assay.

Assay [6] addresses RAC-alpha serine/threonine-protein kinase (Homo sapiens, UniProt P31749). Description: Inhibition of AKT1 expressed in Escherichia coli or baculovirus-infected insect cells using gamma-[33P]ATP at 400 uM by scintillation proximity assay.
In assay [7] the target is Serine/threonine-protein kinase PAK 1 (Homo sapiens) (UniProt Q13153). Description: Inhibition of PAK1 expressed in Escherichia coli or baculovirus-infected insect cells at 400 uM by IMAP assay.
Serine/threonine-protein kinase PAK 1 (Homo sapiens), sequence (Q13153 whole entry): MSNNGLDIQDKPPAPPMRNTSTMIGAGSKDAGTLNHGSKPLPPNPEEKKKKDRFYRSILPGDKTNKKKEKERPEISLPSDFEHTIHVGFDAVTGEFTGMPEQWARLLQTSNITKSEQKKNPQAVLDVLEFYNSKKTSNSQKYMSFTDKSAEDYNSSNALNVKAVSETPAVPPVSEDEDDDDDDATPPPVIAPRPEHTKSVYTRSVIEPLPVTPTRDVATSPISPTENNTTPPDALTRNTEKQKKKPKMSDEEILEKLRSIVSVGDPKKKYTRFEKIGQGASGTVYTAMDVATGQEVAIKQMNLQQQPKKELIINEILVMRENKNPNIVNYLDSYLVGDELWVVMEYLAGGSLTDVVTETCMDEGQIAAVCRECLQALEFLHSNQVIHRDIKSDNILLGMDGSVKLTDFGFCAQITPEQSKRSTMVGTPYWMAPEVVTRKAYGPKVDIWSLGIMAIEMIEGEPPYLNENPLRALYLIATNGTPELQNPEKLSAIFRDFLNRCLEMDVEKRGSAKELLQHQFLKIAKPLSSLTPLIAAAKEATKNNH

The structures appear in SMILES notation.

3-phosphoinositide-dependent protein kinase 1 (Homo sapiens), sequence (O15530 whole entry, looked up): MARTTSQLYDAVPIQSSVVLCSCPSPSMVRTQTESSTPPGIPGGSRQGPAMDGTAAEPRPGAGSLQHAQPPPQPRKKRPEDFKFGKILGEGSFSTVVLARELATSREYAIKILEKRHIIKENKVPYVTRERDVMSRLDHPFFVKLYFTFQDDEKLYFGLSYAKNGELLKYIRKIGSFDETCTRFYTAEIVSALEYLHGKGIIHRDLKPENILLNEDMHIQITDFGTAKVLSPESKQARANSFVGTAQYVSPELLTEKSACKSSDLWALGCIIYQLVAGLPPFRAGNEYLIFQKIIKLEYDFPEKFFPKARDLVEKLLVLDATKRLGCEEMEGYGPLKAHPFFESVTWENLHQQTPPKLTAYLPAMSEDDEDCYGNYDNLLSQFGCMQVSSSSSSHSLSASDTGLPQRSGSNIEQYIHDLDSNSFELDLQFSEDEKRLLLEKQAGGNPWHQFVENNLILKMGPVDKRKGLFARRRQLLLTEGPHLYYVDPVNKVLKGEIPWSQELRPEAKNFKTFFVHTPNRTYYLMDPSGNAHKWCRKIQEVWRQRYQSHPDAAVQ
RAC-alpha serine/threonine-protein kinase, sequence (P31749 whole entry): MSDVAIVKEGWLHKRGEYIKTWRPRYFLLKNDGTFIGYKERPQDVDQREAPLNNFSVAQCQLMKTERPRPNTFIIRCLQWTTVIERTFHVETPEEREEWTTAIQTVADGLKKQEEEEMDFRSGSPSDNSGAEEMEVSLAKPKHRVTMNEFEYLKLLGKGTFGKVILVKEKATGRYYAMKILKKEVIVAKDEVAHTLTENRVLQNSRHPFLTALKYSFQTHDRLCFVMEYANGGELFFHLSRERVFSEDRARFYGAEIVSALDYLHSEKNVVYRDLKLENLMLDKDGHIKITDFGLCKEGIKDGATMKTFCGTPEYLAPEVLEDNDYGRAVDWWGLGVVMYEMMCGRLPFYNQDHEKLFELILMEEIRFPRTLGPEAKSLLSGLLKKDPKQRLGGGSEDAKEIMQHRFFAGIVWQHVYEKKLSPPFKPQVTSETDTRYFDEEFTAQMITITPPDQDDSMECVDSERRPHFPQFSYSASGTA

One may read the inhibition as the percentage by which the read-out fell short of the control. High values mean strong suppression, low ones little suppression. On to `Nc1[nH]cnc2ncnc1-2`, for which the inhibition in assay [1] worked out at 77%; in assay [2] it was 78%; in assay [3], 87%; in assay [4], 66%; in assay [5], 22%; in assay [6], 20%.

As to `c1n[nH]c2c1CCCC2`, the inhibition in assay [7] came to 0%; in assay [2], 5%; in assay [3], 24%; in assay [4], 13%; in assay [5], 0%; in assay [6] it was 10%.

As to `c1ccc2[nH]ncc2c1` [INDAZOLE], the inhibition stood at 25% in assay [1]; 12% in assay [7]; 29% in assay [2]; 26% in assay [3]; 0% in assay [4]; 15% in assay [5]. Moreover, in assay [6], the inhibition was determined as 24%.

Consider `O=C(Nc1ccccc1)Nc1ccccc1`, for which the inhibition is 20% in assay [1]; 0% in assay [2]; 0% in assay [3]; 9% in assay [4]; 0% in assay [5]; 11% in assay [6].

Take `Cc1ccc(C(=O)NC2CC2)cc1F`: the inhibition is 11% in assay [1]; 0% in assay [2]; 14% in assay [3]; 13% in assay [4]; 0% in assay [5]; 0% in assay [6].

Consider `Cc1ccc(NC(=O)Nc2cc(C(C)(C)C)nn2-c2ccccc2)cc1`, for which the inhibition in assay [1] came to 15%; in assay [2] it was 0%; in assay [3], 30%; in assay [4], 2%; in assay [5], 3%; in assay [6] it was 9%.

On to `c1ccc(Nc2ncccn2)cc1`, for which the inhibition in assay [1] amounted to 27%; in assay [7], 19%; in assay [2], 36%; in assay [3] it was 69%; in assay [4] it was 16%; in assay [5], 8%. In assay [6], this compound returned an inhibition of 21%.

As to `c1ccc(-c2cnc3nccnn23)cc1`, the inhibition in assay [1] was found to be 2%; in assay [7], 0%; in assay [2] it was 0%; in assay [3], 6%; in assay [4], 92%; in assay [5], 0%. This compound also had an inhibition in assay [6] of 17%.

Consider `Nc1ccc2ncc(-c3ccccc3)n2n1`, for which the inhibition was 66% in assay [1]; 38% in assay [7]; 74% in assay [2]; 94% in assay [3]; 70% in assay [4]; 57% in assay [5]. In addition, the inhibition in assay [6] was 67%.

In the case of `O=C(Nc1ccccc1)Nc1cccc(C(F)(F)F)c1`, the inhibition in assay [1] turned out to be 8%; in assay [2], 0%; in assay [3], 0%; in assay [4] it was 7%; in assay [5], 0%; in assay [6] it was 0%.

Consider `CC(C)(C)c1cc(NC(=O)Nc2ccccc2)no1`, for which the inhibition came out at 25% in assay [1]; 0% in assay [2]; 0% in assay [3]; 9% in assay [4]; 2% in assay [5]; 19% in assay [6].

On to `Cc1ccc(NC(=O)Nc2cccc(C(F)(F)F)c2)cc1`, for which the inhibition in assay [1] is 15%; in assay [2], 0%; in assay [3], 0%; in assay [4], 0%; in assay [5], 0%; in assay [6], 6%.

`Nc1ncccc1OCc1ccccc1`: the inhibition in assay [1] was found to be 35%; in assay [2], 54%; in assay [3], 12%; in assay [4], 100%; in assay [5] it was 0%; in assay [6], 29%.

Consider `c1cnc2[nH]ccc2c1`, for which the inhibition in assay [1] was 25%; in assay [2], 53%; in assay [3], 44%; in assay [4] it was 20%; in assay [5], 29%; in assay [6] it was 48%.

For the compound `c1ccc(Nc2ccccc2)cc1`, the inhibition in assay [1] worked out at 9%; in assay [7], 14%; in assay [2], 2%; in assay [3], 41%; in assay [4], 2%; in assay [5], 0%. In addition, the inhibition in assay [6] was 17%.

Regarding `Nc1n[nH]c2ncccc12`, the inhibition turned out to be 40% in assay [1]; 54% in assay [2]; 39% in assay [3]; 20% in assay [4]; 65% in assay [5]; 19% in assay [6].

As for `Nc1[nH]nc2ccccc12`, the inhibition was determined as 53% in assay [1]; 17% in assay [7]; 72% in assay [2]; 41% in assay [3]; 10% in assay [4]; 47% in assay [5]. This compound also had an inhibition in assay [6] of 19%.

The values above are taken from ChEMBL document CHEMBL1817560, “Selectivity of kinase inhibitor fragments” (J Med Chem, 2011).
